≈ marks a conversion by molar mass, not a printed value. Where two headings read alike, the source gives them in different places.
Assays:
SARS-CoV-2 [1] = test system: SARS-CoV-2; parameters: method as in PMID 32786284; settings: anti-SARS-CoV-2; cited from earlier work
seasonal influenza A = settings: Call-3 cells, dose-dependent manner; cited from earlier work
[2] = rodents; cited from earlier work
[3] = Pharmacokinetic study after daily oral pyronaridine/artesunate in hamsters (noncompartmental analysis of observed blood, lung and trachea concentrations); parameters: species or system golden hamsters; settings: for tolerability of the doses (no unscheduled deaths): 180/60 and 360/120 mg/kg pyronaridine/artesunate oral once a day for 3 days
Protocol: One hundred eight male golden hamsters were obtained from Janvier Lab. (Le Genest-Saint-Isle, France). All hamsters were maintained on a 12-h dark–light cycle at a temperature of 23 ± 3 °C and relative humidity of 55 ± 15%. This study was conducted according to the Guidelines for Ethical Conduct in the Care and Use of Animals and the rules of Good Laboratory Practice and was approved by the Institutional Animal Care and Use Committee (IACUC, protocol number SP2021-14) at Shin Poong Pharm. Co., Ltd. (Seoul, Republic of Korea).
The hamsters (102.01 ± 5.72 g) were divided into two groups: a low-dose group (n = 60) and a high-dose group (n = 48). […] Blood samples (0.5 mL) were drawn from the jugular vein into heparinized tubes at the following times: 0 (predose), 0.08, 0.25, 0.5, 0.75, 1, 2, 4, 8, 12, 24, 47, 48.08, 48.25, 48.5, 48.75, 49, 50, 52, 56, 60, and 72 h during oral administration for 3 days. The blood sampling was conducted 1–3 times per hamster within 72 h, and the tissues were collected after the last blood sampling. The number of animals was four per blood and tissue sampling time point, respectively (each n = 4). The lung and trachea tissues were immediately obtained after sacrificing hamsters, washed in normal saline, and dried with filter papers. The lung and trachea sampling times were as follows: 0.08, 0.25, 0.5, 0.75, 1, 4, 8, 24, 48.08, 48.25, 48.75, 52, and 72 h. Tissues were individually weighed and homogenized with water (lung or trachea tissue: water = 1:4 w/v). The lung and trachea tissue homogenate were stored at −70 °C until sample analysis. For pyronaridine quantification, whole blood samples were stored at −70 °C until sample analysis.
Liquid chromatography was conducted on the Agilent 1290 Infinity II LC System (Agilent Technologies Inc., Santa Clara, CA, USA) coupled to a 6490 Triple Quad Mass Spectrometer (Agilent Technologies Inc., Santa Clara, CA, USA). A Synergi Max-RP column (2.0 × 75 mm, 4 μm particle size, Phenomenex, Torrance, CA, USA) was used at a temperature of 25 °C. The mobile phase consisted of 0.04% TFA (mobile phase A) and methanol:acetonitrile (3:1 v/v, mobile phase B) with a flow rate of 0.2 mL/min. A gradient elution was used for the chromatographic separation of pyronaridine as follows: 0.0–1.5 min, 10% B; 1.5–1.6 min, 10–60% B; 1.6–4.0 min, 60% B; 4.0–4.1 min, 60–10% B; […], 10% B. The multiple reaction monitoring (MRM) mode was set with a positive electrospray ionization mode. The MRM transitions of pyronaridine and amodiaquine (internal standard, IS) were 518.2 > 447.1 and 356.2 > 283.0. The collision energy of pyronaridine and amodiaquine were 17 and 21 eV, and the cell accelerator voltage was 5 V for both compounds.
Chromatographic separation was performed with an Inertsil ODS column (2.1 × 100 mm, 5 µm particle size, GL Sciences, Tokyo, Japan) column at a temperature of 25 ℃. The mobile phase consisted of 10 mM ammonium acetate (mobile phase A) and acetonitrile (mobile phase B) with an isocratic elution (A:B = 10:90, v/v), and a flow rate of 0.2 mL/min. The mass spectrometer was operated on electrospray ionization positive mode.
Fifty μL of hamster blood, lung, or trachea tissue homogenates were added with 10 μL of the IS solution (10 μg/mL of amodiaquine). Added to the mixed sample were 125 μL of 0.5 M sodium phosphate tribasic dodecahydrate buffer (pH adjusted to 10.3 with 85% ortho-phosphoric acid) and 500 μL of ether, vortexed for 5 min and centrifuged at 21,130× g for 5 min. Then, 300 μL of supernatant were transferred to new microtubes and dried under nitrogen steam at room temperature. The dried residues were reconstituted with 100 μL of mobile phase (0.04% TFA:methanol:acetonitrile = 40:45:15, v/v/v) and vortexed for 5 min. After centrifugation at 21,130× g for 5 min, 5 μL of aliquot were injected into the UPLC-MS/MS system.
Then, 50 μL of hamster plasma, lung, or trachea tissue homogenates were added with 10 μL of the IS solution (5 μg/mL of artemisinin).

[4] = in vivo; cited from earlier work
SARS-CoV-2 [5] = test system: SARS-CoV-2; parameters: method as in PMID 34272426; settings: range in different cell types; cited from earlier work
SARS-CoV-2 [6] = settings: Call-3 cells, dose-dependent manner; cited from earlier work
[7] = dog, in vivo; cited from earlier work
[8] = cited from earlier work
[9] = rat, in vivo; cited from earlier work
SARS-CoV-2 [10] = test system: SARS-CoV-2; parameters: method as in PMID 35609344; settings: SARS-CoV-2 infected mice; cited from earlier work
SARS-CoV-2 in Vero cells = settings: cited from earlier work
[11] = test system: SARS-CoV-2 in Huh7.5 cells; parameters: method as in PMID 34755538; settings: cited from earlier work
[12] = test system: SARS-CoV-2 in Vero E6 cells; parameters: method as in PMID 33075512; settings: cited from earlier work
SARS-CoV-2 [13] = test system: SARS-CoV-2; parameters: method as in PMID 32916297; settings: in vitro anti-SARS-CoV-2; cited from earlier work
[14] = test system: SARS-CoV-2 in Calu-3 cells; parameters: method as in PMID 34755538; settings: cited from earlier work
[15] = fitted, parent-metabolite model
[16] = male, golden, hamster, in vivo, po, 180 mg/kg
[17] = male, golden, hamster, in vivo, po, 360 mg/kg

## C[C@H]1[C@H](OC(=O)CCC(=O)O)O[C@@H]2O[C@@]3(C)CC[C@H]4[C@H](C)CC[C@@H]1[C@@]24OO3 [Artesunate, artesunate]
SARS-CoV-2 [1]
  EC50: 13 µM
Seasonal influenza A
  growth and viral replication of seasonal influenza A: inhibited the growth and viral replication
[2]
  maximal nonlethal dose: 500 mg/kg
[3]
  tolerability of the doses (no unscheduled deaths): tolerated
[4]
  elimination half-life: 19.2 to 31.2 min
  time to peak concentrations: less than five minutes
  time until concentrations decreased below the quantification limit: 2 h
SARS-CoV-2 [5]
  EC50: 18.2 to 31.2 µM
fitted
  Klung (lung-to-blood partition coefficient): 10.33
  Ktrachea (trachea-to-blood partition coefficient): 1.48
  ka (first-order absorption rate constant): 1.74 h⁻¹
  klt (lung-to-trachea transfer rate constant): 0.34 h⁻¹
  ktl (trachea-to-lung transfer rate constant): 1.50 h⁻¹
hamster
  CL/F (apparent total clearance): 2517.70 L/h
SARS-CoV-2 [6]
  growth and viral replication of SARS-CoV-2: inhibited the growth and viral replication

## C[C@H]1[C@@H](O)O[C@@H]2O[C@@]3(C)CC[C@H]4[C@H](C)CC[C@@H]1[C@@]24OO3 [Dihydroartemisinin, dihydroartemisinin]
[7]
  elimination half-life: 0.39 to 0.66 h
SARS-CoV-2 [1]
  EC50: 13.3 µM
[8]
  blood-to-plasma ratio / partition coefficient (Kb:p, Kb:p,m): 0.75
[9]
  elimination half-life: 15 to 61.8 min
[4]
  elimination half-life: 19.2 to 31.2 min
  time to peak concentrations: less than five minutes
[15]
  Klung,m (lung-to-blood partition coefficient): 0.34
  Krest,m (rest of the body-to-blood partition coefficient): 1.21
  Ktrachea,m (trachea-to-blood partition coefficient): 1.08
  klt,m (lung-to-trachea transfer rate constant): 0.35 h⁻¹
  ktl,m (trachea-to-lung transfer rate constant): 6.98 h⁻¹
hamster
  CLm/F (apparent total clearance of metabolite): 10.33 L/h

## COc1ccc2nc3cc(Cl)ccc3c(Nc3cc(CN4CCCC4)c(O)c(CN4CCCC4)c3)c2n1 [Pyronaridine, Pyronaridine tetraphosphate]
[7]
  elimination half-life: 60 h
SARS-CoV-2 [10]
  viral load in the lungs: significant inhibition of the viral load in the lungs
SARS-CoV-2 in Vero cells; after 24 h of culture
  EC50: 0.5699 µg/mL (≈ 1.1 µM)
SARS-CoV-2 in Vero cells; after 48 h of culture
  EC50: 1.1397 µg/mL (≈ 2.2 µM)
[11]
  concentration showing anti-SARS-CoV-2 activity: 103.6 ng/mL
Seasonal influenza A
  growth and viral replication of seasonal influenza A: inhibited the growth and viral replication
[2]
  maximal nonlethal dose: 1500 mg/kg
[3]
  tolerability of the doses (no unscheduled deaths): tolerated
[3]; male, golden, hamster, in vivo, lung-to-blood AUC ratio
  Kp at 3 day: 51
[3]; male, golden, hamster, in vivo, lung-to-blood AUC ratio (=AUClung/AUCblood)
  Kp at 1 day: 25.5
[3]; [16]
  AUC at 1 day: 24100 ng·h/mL
  AUC at 3 day: 57100 ng·h/mL
  Cmax: 2700 ng/mL
[3]; [17]
  AUC at 1 day: 51000 ng·h/mL
  AUC at 3 day: 84900 ng·h/mL
  Cmax: 4540 ng/mL
  Tmax: 120 to 240 min
[3]; male, golden, hamster, in vivo, trachea-to-blood AUC ratio
  Kp at 3 day: 16.6
[3]; male, golden, hamster, in vivo, trachea-to-blood AUC ratio (=AUCtrachea/AUCblood)
  Kp at 1 day: 7.17
[12]
  EC50: 0.373 µg/mL (≈ 0.72 µM)
[8]
  blood-to-plasma ratio: 4.9–17.8
[9]
  elimination half-life: two to four days
SARS-CoV-2 [13]
  EC50: 0.72 µM
  EC90: 0.75 µM
fitted
  Klung (lung-to-blood partition coefficient): 26.06
  Krest (rest of the body-to-blood partition coefficient): 5.25 × 10^−7
  Ktrachea (trachea-to-blood partition coefficient): 8.67
  ka (first-order absorption rate constant): 0.03 h⁻¹
  klt (lung-to-trachea transfer rate constant): 0.92 h⁻¹
  ktl (trachea-to-lung transfer rate constant): 1.01 h⁻¹
hamster
  CL/F (apparent total clearance): 0.21 L/h
[14]
  concentration showing anti-SARS-CoV-2 activity: 8.6 ng/mL
SARS-CoV-2 [6]
  growth and viral replication of SARS-CoV-2: inhibited the growth and viral replication
